# “Also recorded” adds a separate entry of the source. Like-named read-outs stand apart in the source and are kept apart here.
# Columns and labels:
# S. epidermidis [1] = assay: Staining of living and dead bacteria on decontaminated titanium surfaces, confocal microscope; assay type: cell-based; conditions: submerged in sanitizing solution 5 minutes on slow shaker
# Experimental: Titanium surfaces contaminated with S. epidermidis bacteria and grown to biofilm in BHI broth was removed from growth medium and submerged in sanitizing solution for 5 minutes on a slow shaker. Discs were sanitized with A) saline (Negative control), B) Chlorhexidine 0.2% w/v, or C) H2O2 3% v/v+f-127 pluronic Acid 5% w/v. After cleaning the surfaces were stained with fluorescent dyes, green for living microbes and red for dead microbes. […] Surfaces were visualized in a confocal microscope after cleaning and staining (FIG. 4).
# S. epidermidis [2] = assay: Regrowth of luciferase-harbouring bacteria on sanitized titanium surfaces, fluorometer; assay type: cell-based; conditions: 5 minutes in sanitizing solution; for Time until regrowth of the biofilm after cleaning: then BHI medium at 37 centigrade, hourly reading
# Experimental: Regrowth of S. epidermidis after sanitizing a contaminated titanium surface Regrowth of S. epidermidis bacteria harbouring the luciferase gene making them fluorescent, on sanitized titanium surfaces. Surfaces was first contaminated with bacteria and incubated in BHI broth until the surfaces were completely covered in biofilm. The titanium discs were then submerged in sanitizing solution and left on a slow shaker for 5 minutes. After sanitizing the discs were rinsed in a large volume of sterile water, then covered by BHI medium again and incubated at 37 centigrade. At hourly intervals the discs were placed in a fluorometer to measure regrowth of bacteria by amount of fluorescent as compared to an untreated calibrated control and a sterile disc.
# [3] = tested on: non-spore forming bacteria; conditions: in less than 30 seconds, in the laboratory and on human skin; cited from earlier work
# [4] = cited from earlier work
SMILES,Killing of microbes (green living / red dead staining) (S. epidermidis [1]),Removal of biofilm/contamination from titanium surface (S. epidermidis [1]),Biofilm remaining on the surface (S. epidermidis [2]),Killing of bacteria (S. epidermidis [2]),Time until regrowth of the biofilm after cleaning (S. epidermidis [2]),Non-spore forming bacteria killed [3],"Effect on wound healing ([4]; 0.03% v/v solution, only if not applied repeatedly)",Effect on wound healing ([4]; 0.5% v/v solution)
"N=C(NCCCCCCNC(=N)NC(=N)Nc1ccc(Cl)cc1)NC(=N)Nc1ccc(Cl)cc1 [Chlorhexidine 0.2% w/v, Chlorhexidine]",killed all microbes; also recorded: killed all bacteria,left the dead cells to contaminate the surface; also recorded: left them to contaminate the surface,the dead biofilm stuck and remained on the surface,killed all bacteria,no regrowth observed,,,
CC(C)O [Isopropyl alcohol],,,,,,≥ 99.99%,,
"OO [hydrogen peroxide, Hydrogen peroxide]",,,,,about 13 hours,,may induce healing,impede healing

# — patent US20230020320A1, “Liquid Composition for Cleaning, Sanitizing and/or Disinfecting” (CORTICALIS AS, priority 2020, published 2023)
